Experimental data published in patent US20250320556A1, “METHODS AND RELATED ASPECTS FOR DIGITAL MULTI-TEMPERATURE FLUOROMETRIC DETECTION” (THE JOHNS HOPKINS UNIVERSITY, priority 2024, published 2025).

What was measured:
H23 cell line = test: Hypomethylating drug treatment of H23 cells, methylation read out by 15-plex FLAP-Melt; type: cell-based, human; settings: 500 nM, course of 7 days
Procedure: (§1) FIGS. 24A-24D. Methylation analysis in Aza-treated cell lines. Normalized methylation levels in untreated and 500 nM Aza-treated cells for H23 (A) and H520 (B) cell lines. Relative methylation changes in Aza-treated cells, normalized to untreated controls, are shown as clustered bar plots. Each cluster represents a loci from the 15-plex panel, with bars indicating different time points. (C) H23 cell line. (D) H520 cell line.
(§2) A notable application of digital PCR-based cfDNA tests is longitudinal disease progression monitoring over and after a course of treatment due to the quantification capability of the technology. Next, we sought to evaluate the performance of our assay in detecting multiple methylation biomarkers in real biological samples with a focus on the ability of our assay to quantify methylation level changes. We started with two cancer cell lines, H23 and H520, derived from lung tissues of NSCLC patients. To replicate a typical treatment monitoring scenario, we conducted hypomethylating drug treatment on the cell lines using 5-Azacytidine (5-Aza), a drug that can irreversibly bind to DNA methyltransferase after being incorporated into DNA and inhibits its activity. H520 and H23 were treated with 5-Aza at 500 nM over a course of 5 and 7 days, respectively. […]

H520 cell line = test: Hypomethylating drug treatment of H520 cells, methylation read out by 15-plex FLAP-Melt; type: cell-based, human; settings: 500 nM, course of 5 days
Procedure: as §1, §2

## Nc1ncn([C@@H]2O[C@H](CO)[C@@H](O)[C@H]2O)c(=O)n1 [5-Aza, 5-Azacytidine]
H23 cell line
  confluency rate of treated cells compared with untreated cells: much lower
H23 cell line; vs untreated cells, majority of the targets
  methylation level of targets (15-plex panel) in treated cells: decreasing trend
H520 cell line
  confluency rate of treated cells compared with untreated cells: much lower
H520 cell line; vs untreated cells
  methylation levels of targets (15-plex panel) in treated cells: decreased overtime
